Assay results: patent US10596172B2 (Celgene CAR LLC, priority 2008, dated 2020)

What was measured:
[1] = system: Human naïve B cells; experiment: Human primary B cell proliferation assay; type: cell-based; conditions: 5 μg/ml α-IgM 72 hours, 3H-thymidine incorporation
Protocol: Human naïve B cells were purified from 100 mL whole blood using a MACS purification kit designed to isolate CD19+, IgD+ cells by negative selection. Purified naïve B cells were resuspended in RPMI complete and stimulated with 5 μg/ml α-IgM for 72 hours. ^3H-Thymidine was included in the culture media for the final 16 h, cells were harvested and ^3H incorporation measured. Inhibition of B cell proliferation correlates with inhibition of BTK substrate phosphorylation after α-IgM stimulation.

[2] = molecular target: T1, BTK (Homo sapiens (Human), UniProt Q06187); experiment: BTK occupancy from in vitro samples by ELISA (Ramos cells); type: cell-based
T1 sequence (Q06187 whole entry): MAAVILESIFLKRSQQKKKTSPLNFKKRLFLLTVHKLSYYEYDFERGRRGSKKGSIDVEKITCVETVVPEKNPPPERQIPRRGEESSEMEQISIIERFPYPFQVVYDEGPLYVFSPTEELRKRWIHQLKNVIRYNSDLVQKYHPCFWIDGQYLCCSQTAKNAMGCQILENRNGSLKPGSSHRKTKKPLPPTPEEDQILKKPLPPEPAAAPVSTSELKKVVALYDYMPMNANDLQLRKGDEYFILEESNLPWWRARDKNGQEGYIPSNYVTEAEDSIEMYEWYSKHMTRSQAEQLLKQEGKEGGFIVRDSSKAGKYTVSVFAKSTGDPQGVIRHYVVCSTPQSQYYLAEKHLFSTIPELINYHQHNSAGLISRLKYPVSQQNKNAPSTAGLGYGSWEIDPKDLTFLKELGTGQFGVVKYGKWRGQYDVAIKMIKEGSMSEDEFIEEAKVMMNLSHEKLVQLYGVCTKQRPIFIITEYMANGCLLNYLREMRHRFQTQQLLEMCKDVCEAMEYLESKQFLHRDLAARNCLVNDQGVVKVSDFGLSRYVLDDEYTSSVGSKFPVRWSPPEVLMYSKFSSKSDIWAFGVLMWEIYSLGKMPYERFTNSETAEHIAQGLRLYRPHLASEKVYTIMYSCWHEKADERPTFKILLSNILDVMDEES
Protocol: In order to determine the amount of free BTK in cell or tissue lysates, an ELISA protocol was employed that utilizes a biotinylated probe compound that binds only to free, unoccupied BTK. The conjugated biotin is captured on a streptavidin-coated ELISA plate and detected with a mouse anti-BTK antibody (Becton Dickinson, Franklin Lakes, N.J., USA) and a secondary goat anti-mouse HRP antibody (Zymed, South San Francisco, Calif., USA).
All samples were prepared with equal concentrations of Biorad lysis buffer (Hercules, Calif., USA), 0.5% bovine serum albumin in PBS with 0.05% Tween-20 to give a final concentration of 1 μM I-215. Samples were incubated in a mixing plate for 1 hr at room temperature while shaking to allow probe compound I-215 to bind to free BTK. After incubation with I-215, samples were added to a washed, streptavidin-coated ELISA plate (Pierce, Rockford, Ill., USA) and incubated for 1 hr at room temperature while shaking. The plate was then washed with PBS containing 0.05% Tween-20 using an automatic plate washer. Anti-BTK antibody was prepared at 1:1000 dilution in 0.5% BSA in PBS (0.05% Tween-20) and added to the ELISA plate. The plate was incubated for 1 hr at room temperature while shaking. The plate was washed as described above and the secondary HRP antibody was prepared at 1:5000 dilution in 0.5% BSA in PBS (0.05% Tween-20). The plate was incubated and washed as described above. TMB was added to the plate, and OD650 was monitored until reaching 1 OD unit. The reaction was then stopped with addition of H2SO4. The plate was analyzed using Gen 5 software, and a 4 Parameter Logistic curve was employed to quantitate samples. Recombinant BTK (Invitrogen, Carlsbad, Calif., USA) was used for the standard curve.
A concentration designated as “A” is greater than 1 nM; a concentration designated as “B” is greater than 10 nM; and a concentration designated as “C” is greater than 50 nM.

[3] = molecular target: T1, BTK; experiment: Mass spectrometry for BTK (covalent modification of intact protein); type: binding; conditions: 1 hr, 10x fold excess of compound
Protocol: Intact BTK was incubated for 1 hr at a 10× fold excess of I-7 to protein. Aliquots (2 μl) of the samples were diluted with 10 μl of 0.1% TFA prior to micro C4 ZipTipping directly onto the MALDI target using Sinapinic acid as the desorption matrix (10 mg/ml in 0.1% TFA:Acetonitrile 20:80).

SMILES: C=CC(=O)Nc1cccc(Nc2nc(Nc3ccccc3)ncc2C)c1 [Compound I-7, N-(3-(5-methyl-2-(phenylamino)pyrimidin-4-ylamino)phenyl)acrylamide]
- EC50 [1]: 1 to 10 nM
- >50% occupancy (concentration at which >50% of BTK is occupied) [2]: A (greater than 1 nM)
- >90% occupancy (concentration at which >90% of BTK is occupied) [2]: B (greater than 10 nM)
- covalent modification of BTK by mass spectrometry [3]: complete modification
